Earlier results as cited in patent US20080248135A1, “Combination Therapy for Otitis with Antiseptic and pH Adjustment” (Collegium Pharmaceutical, Inc., priority 2006, published 2008).

Legend:
[1] = test system: P. aeruginosa; settings: background statement
[2] = test system: Aspergillus; settings: antifungal creams; background statement

Molecule: CC1=C(C(=O)O)N2C(=O)[C@@H](NC(=O)[C@H](N)c3ccccc3)[C@H]2SC1 [cephalexin]
- Activity against P. aeruginosa [1]: no activity

Molecule: trimethoprim-sulfamethoxazole
- Activity against P. aeruginosa [1]: no activity

Molecule: N[C@@H](C(=O)N[C@@H]1C(=O)N2C(C(=O)O)=C(Cl)CS[C@H]12)c1ccccc1 [cefaclor]
- Activity against P. aeruginosa [1]: no activity

Molecule: C[C@@H]1[C@H](O)[C@@H](C)/C=C/C=C/CC/C=C/C=C/C=C/C=C/C(O[C@H]2O[C@H](C)[C@@H](O)[C@H](N)[C@@H]2O)CC2O[C@](O)(CC(O)C(O)CCC(O)CC(O)CC(O)CC(=O)O[C@H]1C)CC(O)C2C(=O)O (stereo partly shown) [nystatin]
- Effectiveness against Aspergillus [2]: not effective

Molecule: CC1(C)S[C@@H]2[C@H](NC(=O)[C@H](N)c3ccccc3)C(=O)N2[C@H]1C(=O)O [ampicillin]
- Activity against P. aeruginosa [1]: no activity

Molecule: Clc1ccccc1C(c1ccccc1)(c1ccccc1)n1ccnc1 [clotrimazole]
- Effectiveness against Aspergillus [2]: not effective

Molecule: II [iodine, elemental iodine (I2)]
- Saturating concentration of iodine in water: ca. 0.0013 M
